Usually melting point stands for the temperature of the solid-liquid transition.

`CCN(c1ccccc1)c1ccc(C(=O)c2ccccc2)cc1N` showed a melting point of 82 to 82.5 °C. `CNc1nc(-c2cccc(C(=O)Nc3cccnc3)c2)c2cc(OC)c(OC)cc2n1` returned a melting point of 238 to 240 °C. Compound `CC(CC(C)Oc1ccc(-c2ccc(C#N)cc2)cc1)Oc1ccc(-c2ccc(C#N)cc2)cc1` (centres undefined) yielded a melting point of 140 °C. Consider `O=S(=O)(C=Cc1ccccc1)N1CCc2c([nH]c3ccccc23)C1c1ccc2c(c1)OCO2` (centres undefined), for which the melting point lay within 191 to 192 °C. `O=C(O)c1ccc2c(c1)OC(c1cccc(Cl)c1)(c1cccc(Cl)c1)O2` came in with a melting point of 166 °C.

In turn, `COC(=O)CCCCCNC(=O)c1csc(NC(=O)NCc2ccccc2)n1` gave a melting point of 140 °C. For `COC(C)=CC(=O)Nc1cccc(OC(=O)NC(C)C)c1`, the melting point is 210 °C. As for `O=[N+]([O-])c1cnc2cccnc2c1NCc1ccccc1`, the figure is 127 to 129 °C; as for `CC(C=O)Cc1cc(C(C)(C)C)c(O)c(C(C)(C)C)c1` (centres undefined), 162 to 164 °C. `O=[N+]([O-])c1ccc(Oc2c(Cl)cc(S(=O)(=O)NC(=NO)Nc3ccc(Cl)cc3)cc2Cl)c(Cl)c1` displayed a melting point of 180 °C.

For `Cn1nc(-c2c(F)cccc2Cl)nc1-c1ccc(F)c(-c2ccc(OC(F)(F)F)cc2)c1`, the melting point lay within 117 to 119 °C.

In turn, `CC(=O)Nc1nc(-c2ccc([N+](=O)[O-])cc2)c[nH]1` gave a melting point of 242 to 244 °C.

Compound `c1ccc2c(c1)Cc1c(-c3ccsc3)n[nH]c1-2` returned a melting point of 219 to 220 °C. The compound `CC1(O)OC(=O)C(c2c(F)cc(F)cc2F)=C1Cc1ccc(Cl)cc1` (centres undefined) gave a melting point of 127 to 129 °C. As for `CN(CCO)c1ccc(C=Cc2ccc(S(C)(=O)=O)cc2)cc1`, the melting point lay in the range of 201 to 204 °C. For the compound `COc1cc(COc2cc(N)c(Cl)cc2C(=O)CCCCN2CCC(C)(C)CC2)cc(OC)c1`, the melting point fell in the range of 135 to 136 °C. `O=C(CCl)c1cccn1C(c1ccccc1)c1ccccc1F` (centres undefined): the melting point fell in the range of 86 to 91 °C. For `CCc1nc2c(N)nc(C)c(C)c2n1CCOCCNC(=O)NC(=O)c1ccccc1`, the melting point was 185 to 187 °C. To `COc1ccc(C(C)C)c(NC(=O)CN2CCN(CCCSc3nc4c(C)c(Cl)cc(C(C)C)c4o3)CC2)c1C(C)C` belongs 126 to 127 °C; to `CCn1ncc2c(Cl)c3cc(Br)ccc3nc21`, 117 to 118 °C. `COc1nncc(-c2cccc(C(F)(F)F)c2)n1`: the melting point fell in the range of 95 to 97 °C. The compound `CC(C)(O)CNC(=O)CC1CN=C(c2cc3cc(Oc4ccc(S(C)(=O)=O)nc4)cc(OC4CCOCC4)c3[nH]2)S1` (centres undefined) registered a melting point of 195 to 196 °C. Turning to `ON=C(c1cccc(F)c1)c1ccc(O)c(Cl)c1Cl`, the melting point is 178 to 185 °C. Compound `Cc1ccc(NC(=O)c2ccc3c(c2)C(=O)N(c2c(Cl)cccc2Cl)C3=O)cc1C` gave a melting point of 238 to 240 °C. Take `Cc1cc(CNC(=O)c2sc(N3C[C@@H](C)N(Cc4ccc(F)cc4)C3=O)nc2C)no1`: the melting point was 139 to 140 °C. In turn, `CN1CCC(=C2c3ccccc3CCc3ccc(C#N)cc32)CC1` displayed a melting point of 152 to 154 °C.

Turning to `O=C1C2=C(NCCC2)N(c2ccccc2)C2=NCCN12`, the melting point was 248 to 250 °C. As for `O=S(=O)(CCl)c1ncc(Cl)cn1`, the figure is 100 °C; as for `CC(C)COC(=O)NC1=NCC(c2ccccc2)N1C` (centres undefined), 103 to 104 °C; as for `COC(=O)[C@H]1C=C(C2CCCCC2)OC(=O)[C@H]1Cc1ccccc1`, 87 to 89 °C. The compound `CCCCCCCCCCc1ccc2cc(/C=C/c3cc4ccc(CCCCCCCCCC)cc4cc3SC)c(SC)cc2c1` registered a melting point of 117 to 118 °C.

Take `Cc1oc(-c2ccccc2)nc1COc1cccc(COc2ccccc2CC(=O)O)c1`: the melting point fell in the range of 117 to 118 °C.

The compound `CC(C)(C)c1nc(-c2ncn3c2COC(=O)c2ccccc2-3)no1` had a melting point of 210 to 211 °C. `C=C(c1ccc(N(C)C)cc1)c1ccc(N2CCCC2)cc1C` returned a melting point of 90 to 93 °C. `N#CCc1ccccc1CCc1ccc(Br)cc1` yielded a melting point of 59 to 60.5 °C. To `COc1c(C)cccc1Oc1ccccc1` belongs 52 to 53 °C; to `COC(CN(C)C(=O)Nc1nnc(C(C)Oc2cccc(Cl)c2)s1)OC` (centres undefined), 127 to 130 °C; to `O=C1OCCC1N1C(=O)c2cccc3cccc(c23)C1=O` (centres undefined), 310 to 312 °C. Turning to `NC(=O)c1[nH]nnc1O`, the melting point lay within 191 to 192 °C. Consider `O=C1c2ccc(Br)cc2C(=O)N1c1ccc(Cl)cc1C(F)(F)F`, for which the melting point lay in the range of 174 to 175 °C. The compound `CC(C(=O)N(C)C)n1cc(Cl)c(-c2ccccc2Cl)n1` (centres undefined) came in with a melting point of 108 to 111 °C. On to `O=C(Cl)C(Oc1cccc(C(F)(F)F)c1)c1ccc(Cl)cc1` (centres undefined), for which the melting point is 96 to 98 °C. `COC(=O)c1ccc(CN2CCOc3ccc(NC(=O)CC4CCCC4)cc32)c(OC)c1` displayed a melting point of 152 to 153 °C. Compound `NS(=O)(=O)c1ncccc1SCCCF` registered a melting point of 85 to 86 °C. As for `O=C(Nc1cc(Cl)ccc1S(=O)(=O)c1ccccc1)N[C@@H](Cc1ccc(NC(=O)c2c(Cl)cccc2Cl)cc1)C(=O)O`, the figure is 242 °C; as for `Brc1cc(C=Cc2scc3c2OCCO3)ccn1`, 127 to 129 °C; as for `Nc1nc2ccc(C(=C(Cl)Cl)c3ccccc3)cc2n1N1C=CC=CS1`, 214 to 217 °C. On to `OCCCc1conc1-c1ccc(Cl)c(F)c1`, for which the melting point fell in the range of 54 to 55 °C. As for `c1ccc2c(c1)CNc1ccccc1N2`, the melting point lay in the range of 114 to 116 °C.

The compound `COc1ccc(C(OCC2OC(n3cnc4c(=O)[nH]c(NC(=O)Cc5ccc(Br)cc5)nc43)CC2O)(c2ccccc2)c2ccc(OC)cc2)cc1` (centres undefined) gave a melting point of 150 to 155 °C. As for `CNC(Cc1ccccc1NC(=O)C(C)(C)C)c1ccccc1` (centres undefined), the melting point lay within 85 to 86 °C. Turning to `Cc1cc2c(c(Sc3ccc(Cl)cc3)n1)C(=O)N(CC1Cc3c(sc(N)c3C(=O)OC(C)(C)C)CO1)C2=O` (centres undefined), the melting point lay in the range of 118 to 119 °C. `CCOC(=O)c1cnc2onc(C)c2c1OCC` had a melting point of 62 °C. In turn, `CC(=O)C1(OC=O)CCC2C3CCC4=CC(=O)C=CC4(C)C3CCC21C` (centres undefined) displayed a melting point of 201 to 205 °C. Compound `CCCCNS(=O)(=O)c1ccc(N2CCC(=O)CC2)cc1` displayed a melting point of 79 to 82 °C. With `COC(=O)[C@@H]1COC(=S)N1C(=O)c1ccccc1`, the melting point lay in the range of 87.2 to 88 °C. To `CS(=O)(=O)Nc1cc(Cl)c(Cl)cc1Cl` belongs 144 to 145 °C. Compound `COc1cc(C)nc2c(OCc3c(Cl)ccc(N)c3Cl)cccc12` had a melting point of over 250 °C. For `O=c1cc(-c2ccc(F)cc2)c2ccc(Sc3cc(F)cc(C(O)(c4nccs4)C(F)(F)F)c3)cc2o1` (centres undefined), the melting point was 72 to 73 °C.

`CC(=O)NC(CCc1ccccc1)(COC(C)=O)COC(C)=O`: the melting point fell in the range of 116 to 117 °C. `COC(=O)OCC(COC(=O)OC)OCn1cnc2c(=O)[nH]c(N)nc21`: the melting point fell in the range of 204 to 206 °C. As for `N#Cc1ccc(CCC(=O)c2c(O)c3cccnc3n(-c3ccccc3)c2=O)cc1`, the melting point was 248 to 249 °C. As for `C=CS(=O)(=O)NCc1ccc(C(N)=O)cc1`, the figure is 142 to 144 °C; as for `O=Cc1ccc(OCCCc2ccccc2)c([N+](=O)[O-])c1`, 82.5 °C; as for `O=C(Cn1cc(-c2ccccc2)c(-c2ccccc2)n1)NCCN1CCCCC1`, 120 to 124 °C. To `O=[N+]([O-])c1ccc(O)c(-c2ccsc2)c1` belongs 130 °C; to `CC(=O)c1[nH]c(C)nc1C`, 83 to 87 °C. Consider `CC(C)CC(=O)Nc1cccc(-c2ccnc3c(C(=O)C4CCCC4)cnn23)c1`, for which the melting point fell in the range of 69 to 71 °C. As for `CC(=O)c1ncn2c1CN=C(c1ccccc1Cl)c1cc(Cl)ccc1-2`, the melting point lay within 214 to 216 °C. Turning to `CCCc1c(OCCCOc2ccc3c(c2CCC)OC(C)(CCC(=O)OC)CC3)ccc(C(C)=O)c1O` (centres undefined), the melting point fell in the range of 53 to 55 °C.

`COc1ccc(CC(C)=NO)cc1S(N)(=O)=O` showed a melting point of 193 to 194 °C. In the case of `Cc1cc(-n2cncn2)c2cccc(OCc3c(Cl)ccc(S(=O)(=O)N4CCC[C@H]4C(=O)NCC4CCN(C(=O)OC(C)(C)C)CC4)c3Cl)c2n1`, the melting point turned out to be 94 °C. As for `CCOC(=O)Nc1csc2cc(O)ccc12`, the figure is 159 to 160 °C; as for `Cc1c(C#Cc2ccc(C(F)(F)F)cc2)ccc(N)c1C#N`, 136 to 138 °C. The compound `Cc1ccc(OCc2ccccc2)c(C(=O)O)c1C(=O)O` registered a melting point of 200 to 203 °C. Regarding `N#CCN1CCc2ccccc2C(Oc2ccc(C(F)(F)F)cc2)C1` (centres undefined), the melting point is 125 to 129 °C.

`CC1C(=O)N(c2ccc3c(c2)OCO3)C(=S)N1c1ccc(Oc2ccccc2)cc1` (centres undefined) gave a melting point of 185 °C. `COc1cc2cn(CC3CCCCO3)nc2cc1OC` (centres undefined): the melting point was in the range of 90 to 96 °C. In the case of `O=C1Nc2cc(C(F)(F)F)ccc2N2CCN(CCc3ccncc3)CC12` (centres undefined), the melting point lay in the range of 204 to 206 °C. For `COC(=O)C[C@H](NC(=O)OCc1ccccc1)C(=O)O`, the melting point was in the range of 55 to 60 °C. Regarding `CCn1nc(C)c2c1C(=O)NCC(c1ccc(NS(=O)(=O)c3ccccc3S(=O)(=O)c3ccccc3)cc1)=N2`, the melting point was over 230 °C. In turn, `CCOC(=O)c1cn(-c2nccs2)cn1` displayed a melting point of 142 to 143 °C. In the case of `CC(Cc1ccc(O)cc1)NCC(O)c1cccc(Cl)c1` (centres undefined), the melting point lay in the range of 50 to 55 °C. As to `CSCCC(NC(C)=O)C(=O)N1CC1C#N` (centres undefined), the melting point was in the range of 86 to 88 °C. As for `NC(=O)N1C(=O)C(C(=O)c2cc(Cl)cs2)c2ncc(Cl)cc21` (centres undefined), the figure is over 250 °C; as for `CCC1(CC(=O)O)OCC(=O)c2c1[nH]c1ccccc21` (centres undefined), 235 to 238 °C; as for `C=CCN1C(=O)N(c2ccc([N+](=O)[O-])c(C(F)(F)F)c2)C(=O)C1(C)C`, 105 °C. As for `CCOC(=O)N(CCOc1ccc(Oc2ccc(F)cc2)cc1)C(=O)OCC`, the figure is 52 to 53 °C; as for `COc1cc2c(cc1OC)N(c1ccc([N+](=O)[O-])cc1)CC2`, 176 to 179 °C.

The values above are taken from a melting point compilation (Tetko et al.; mined from patent text by program, amines drawn as free bases though some values may be those of a salt).
